Test system: MCF-7/ADR drug resistant cell line
Assay: IC50 of DOX against drug-resistant cell line
Type: cell-based
Conditions: ratio MCF-7/ADR to MCF-7

- IC50 in MCF-7/ADR cells relative to MCF-7 cells: 108.07 fold
Compound: COc1cccc2c1C(=O)c1c(O)c3c(c(O)c1C2=O)C[C@@](O)(C(=O)CO)C[C@@H]3O[C@H]1C[C@H](N)[C@H](O)[C@H](C)O1 [DOX, doxorubicin]

Source: publication PMC8965496, “Combating multidrug resistance and metastasis of breast cancer by endoplasmic reticulum stress and cell-nucleus penetration enhanced immunochemotherapy” (Theranostics, 2022)
